Patent US6867185B2 (Bristol-Myers Squibb Company, priority 2001, dated 2005)
Counter-ions that a name gives are not always drawn. Like-named read-outs stand apart in the source and are kept apart here.

How the values were obtained:
[1] = target: T1, porcine pancreatic elastase (PPE) (Sus scrofa, UniProt P00772); experiment: Specificity assay, porcine pancreatic elastase; type: biochemical; conditions: 2 hr pre-incubation
T1 construct: purchased Sigma
Procedure: (§1) The specificities of compounds of the present invention were determined against a variety of serine proteases: human neutrophil elastase (HNE), porcine pancreatic elastase (PPE) and human pancreatic chymotrypsin and one cysteine protease: human liver cathepsin B. In all cases a 96-well plate format protocol using colorimetric p-nitroaniline (pNA) substrate specific for each enzyme was used as described previously (U.S. Pat. No. 6,323,180) with some modifications to the serine protease assays. All enzymes were purchased from Sigma while the substrates were from Bachem.
(§2) Each assay included a 2 hr enzyme-inhibitor pre-incubation at RT followed by addition of substrate and hydrolysis to ˜30% conversion as measured on a Spectramax Pro microplate reader. Compound concentrations varied from 100 to 0.4 μM depending on their potency. […]
(§3) The percentage of inhibition was calculated using the formula: [1−((UVinh−UVblank)/(UVctl−UVblank))]×100 […]

[2] = tested on: human pancreatic chymotrypsin; experiment: Specificity assay, chymotrypsin; type: biochemical; conditions: 2 hr pre-incubation
Procedure: as §1, §2, §3

human liver cathepsin B = target: T2, human liver cathepsin B (Homo sapiens, UniProt P07858); experiment: Specificity assay, cathepsin B; type: biochemical; conditions: 2 hr pre-incubation
T2 construct: purchased Sigma; host or cells: human liver (as named)
Procedure: as §1, §2, §3

[3] = tested on: HCV replicon in Huh7 cells; experiment: HCV replicon cell-based assay (replicon FRET assay); set-up: species or system HCV strain 1B; conditions: Hepatitis C virus, Huh-7, HCV replicon cell assay
Procedure, shortened: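 Huh7 cells carrying a genotype 1b subgenomic replicon (neo, NS3–NS5B) were treated with compound for 4 days at 37 °C in 0.5% DMSO final. Lysates with 10 μM RET S1 FRET peptide and 150 mM NaCl were read kinetically at 340/490 nm over 21 cycles. EC50 was derived as for the enzyme IC50.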

T1 sequence (P00772 27-266): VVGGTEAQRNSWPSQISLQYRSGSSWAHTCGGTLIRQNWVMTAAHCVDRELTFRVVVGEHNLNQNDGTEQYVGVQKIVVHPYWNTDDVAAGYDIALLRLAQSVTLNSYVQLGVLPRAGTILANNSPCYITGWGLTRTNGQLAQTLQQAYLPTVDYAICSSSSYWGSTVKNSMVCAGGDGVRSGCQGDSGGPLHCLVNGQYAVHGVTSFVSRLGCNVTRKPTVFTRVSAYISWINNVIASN

COc1ccc2c(O[C@@H]3C[C@H]4C(=O)N[C@]5(C(=O)NS(=O)(=O)C6CC6)CC5/C=C/CCCC[C@H](N)C(=O)N4C3)cc(-c3ccccc3)nc2c1 (stereo partly drawn) [Compound 6, (1S,4R,6S,13S,17R)-7-trans-Cyclopropanesulfonic acid [13-amino-17-(7-methoxy-2-phenylquinolin-4-yloxy)-2,14-dioxo-3,15-diazatricyclo[13.3.0.0^4,6]octadec-7-ene-4-carbonyl]amide dihydrochloride]
IC50 [1]: > 100 µM
IC50 [2]: > 100 µM
IC50 (human liver cathepsin B): > 100 µM
EC50 ([3]; EC50 ranges): < 500 nM
EC50 ([3]; read-out: EC50): ~124 nM
